Where two headings read alike, the source gives them in different places. No end group written: not given here. Where only a bound is given, the exact number is not on record here.

For one data set, the target named is T1, purified porcine DPP-4 (Sus scrofa, UniProt P22411).
T1 construct: purchased Sigma-Aldrich
Description: In vitro DPP-4 stability (RP-HPLC and MALDI-ToF degradation profiles). To be noted: for DPP-4 stability: pH 7.4. It is filed as in vitro ADME. The method, then:
To establish in vitro stability of PP and [P^3]PP, peptides (10 μg) were incubated with purified porcine DPP-4 (5 mU in 50 mmol/l triethanolamine/HCl, pH 7.4; Sigma-Aldrich) for 0-8 hours and degradation profiles examined using RP-HPLC and MALDI-ToF, employing the same systems as outlined above. Sequence of native PP and [P3]PP using one letter amino acid notation. The amino acid substitution in [P3]PP is denoted by bold underlined text. In vitro DPP-4 stability was assessed following incubation of test peptides with purified DPP-4 (5 mU) for 0-8 h.

For the next data set, the system named is BRIN-BD11 cells. Description: Beta-cell proliferation (Ki-67 staining), with and without Y4 antagonist (S)-VU0637120. It is filed as cell-based, rodent. To be noted: 10^-8 and 10^-6 M, 18 h. The procedure: FIG. 1 illustrates the effects PP peptides on cell viability, insulin release, proliferation and apoptosis from rodent BRIN-BD11 cells. (A) Cells were incubated with test peptides (10^−8-10^−6 M) for 18 h prior to addition of MTT. (B, C) Cells were incubated (20 min) with (B) 16.7 mM glucose or (C) 16.7 mM glucose supplemented with alanine (10 mM), alone and together with test peptides (10^−12-10^−6 M) and insulin secretion assessed by RIA. (D, E) To assess effects on BRIN BD11 beta-cell proliferation and apoptosis and receptor selectivity, cells were incubated with test peptides (10^−8-10^−6 M) alone, or together with cytokine mix (IL-1β 100 Uml, IFN-γ 20 U/ml, TNF-α 200 U/ml), in the absence and presence of the Y4 antagonist, (S)-VU0637120, (10^−5 M), as specified, for 18 h prior to staining for (D) Ki-67 or (E) TUNEL. Values are mean±SEM (n=8). *p<0.05, **p<0.01 and ***p<0.001 compared with appropriate control culture, namely (A, D, E) media alone or (B, C) 16.7 mM glucose. ^Δp<0.05, ^ΔΔp<0.01, ^ΔΔΔp<0.001 compared to (C) 10 mM alanine or (E) cytokine mix. ^φp<0.05, ^φφp<0.01, ^φφφp<0.001 compared to effects in the absence of the NPYR4 antagonist (S)-VU0637120. […] Proliferation/TUNEL positive frequency was determined using the cell-counter function on ImageJ Software and expressed as % of total cells analysed, as described previously from our laboratory. […]

T1 sequence (P22411 whole entry): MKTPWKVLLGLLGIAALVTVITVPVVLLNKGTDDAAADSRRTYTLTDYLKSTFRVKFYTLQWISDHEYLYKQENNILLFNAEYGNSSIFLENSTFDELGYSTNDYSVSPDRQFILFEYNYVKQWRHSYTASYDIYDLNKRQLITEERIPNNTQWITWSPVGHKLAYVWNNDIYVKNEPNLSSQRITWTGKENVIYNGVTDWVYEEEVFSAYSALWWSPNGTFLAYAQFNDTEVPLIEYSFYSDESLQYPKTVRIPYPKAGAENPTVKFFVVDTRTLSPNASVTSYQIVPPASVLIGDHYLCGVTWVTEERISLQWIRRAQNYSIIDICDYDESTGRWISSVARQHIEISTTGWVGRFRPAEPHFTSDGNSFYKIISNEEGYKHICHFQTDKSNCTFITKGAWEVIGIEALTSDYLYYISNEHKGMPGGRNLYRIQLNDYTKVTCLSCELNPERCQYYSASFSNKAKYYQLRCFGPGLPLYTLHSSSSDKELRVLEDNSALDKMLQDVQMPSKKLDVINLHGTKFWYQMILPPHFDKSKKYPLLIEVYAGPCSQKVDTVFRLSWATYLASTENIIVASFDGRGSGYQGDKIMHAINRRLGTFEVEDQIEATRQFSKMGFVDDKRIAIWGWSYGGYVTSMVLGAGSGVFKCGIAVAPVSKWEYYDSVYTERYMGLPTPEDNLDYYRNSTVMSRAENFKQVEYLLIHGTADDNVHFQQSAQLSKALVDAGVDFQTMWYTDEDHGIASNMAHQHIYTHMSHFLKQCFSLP

Take `CC[C@H](C)[C@H](NC(=O)[C@H](Cc1ccc(O)cc1)NC(=O)[C@H](CCCNC(=N)N)NC(=O)[C@H](CCCNC(=N)N)NC(=O)[C@H](CC(C)C)NC(=O)[C@H](CC(=O)O)NC(=O)[C@H](C)NC(=O)[C@H](C)NC(=O)[C@H](Cc1ccc(O)cc1)NC(=O)[C@H](CCC(N)=O)NC(=O)[C@H](C)NC(=O)[C@H](CCSC)NC(=O)[C@H](CCC(N)=O)NC(=O)[C@H](CCC(=O)O)NC(=O)[C@@H]1CCCN1C(=O)[C@@H](NC(=O)[C@H](C)NC(=O)[C@H](CC(N)=O)NC(=O)[C@H](CC(=O)O)NC(=O)CNC(=O)[C@@H]1CCCN1C(=O)[C@H](Cc1ccc(O)cc1)NC(=O)[C@@H](NC(=O)[C@@H]1CCCN1C(=O)[C@H](CCC(=O)O)NC(=O)[C@H](CC(C)C)NC(=O)[C@@H]1CCCN1C(=O)[C@H](C)N)C(C)C)[C@@H](C)O)C(=O)N[C@@H](CC(N)=O)C(=O)N[C@@H](CCSC)C(=O)N[C@@H](CC(C)C)C(=O)N[C@H](C(=O)N[C@@H](CCCNC(=N)N)C(=O)N1CCC[C@H]1C(=O)N[C@@H](CCCNC(=N)N)C(=O)N[C@@H](Cc1ccc(O)cc1)C(N)=O)[C@@H](C)O` [Native PP]: at purified porcine DPP-4, the DPP-4 mediated degradation result is given as “generation of the N-terminally cleaved product, PP(3-36)” and the DPP-4 stability is less than 2 h. For the compound “APPEPVYPGDNAKPEQMAQYAADLRRYINMKTRPRY-NH2 (C-terminus assumed) [[P^3]PP]”, the DPP-4 mediated degradation result at purified porcine DPP-4 (incubation with DPP-4, 0-8 h) is on record as “completely resistant”. This compound showed a DPP-4 stability on purified porcine DPP-4 (purified DPP-4 (5 mU), incubation 0-8 h) greater than 8 h. In the case of “GLP-1: GLP-1 (10^-8 and 10^-6 M) employed as control in proliferation studies”, the “BRIN-BD11 cell proliferation (Ki-67)” value with BRIN-BD11 cells is on record as “augmented”.

The values are drawn from patent publication US20260097101A1, “Compositions for Use in the Treatment of Diabetes or Obesity” (Dia Beta Labs Ltd, priority 2022, published 2026).
